What was measured:
[1] = tested on: Meloidogyne incognita eggs; experiment: M. incognita egg hatching; assay type: in vivo
Protocol: Meloidogyne incognita (plant parasitic nematode) eggs were collected from tomato plant roots and were suspended in water. The solution was either diluted or concentrated to adjust the egg load to about 5000/ml. AT stock solutions prepared in DMSO and 300 ul of test solution was placed in a well, along with 20 ul of aqueous solution containing eggs. The number of eggs in 20 ul solution ranged from 115 to 143 (n=10). Each treatment (2, 5, 10, 20, or 40 ppm) was replicated 5 times. Microplates were sealed with Parafilm™ and incubated at room temperature. Similar tests conducted with 0.2% DMSO alone served as controls. Egg hatching was monitored at 24, 72, 120, and 168 hr after incubation. Both moving and non-moving nematodes were counted to arrive at the number of eggs hatched. Proportion of egg hatch was calculated as the number of juveniles divided by total number of eggs.
VSCC blockers effect on M. incognita egg hatching is shown in the following tables where % hatched is rounded to the nearest percentage point and where “% C*” is % hatch, normalized to control.

[2] = tested on: European corn borer (Ostrinia nubilalis); experiment: Diet surface test on European corn borer larvae (2nd instar); assay type: in vivo
Protocol: Concentrations of 6.25, 12.5, 25, or 50 ppm AT blocker were prepared in 95% ethyl alcohol (EtOH). 95% EtOH alone served as control. European corn borer (ECB) diet prepared from the powdered diet supplied by French Agricultural Research, Inc. Diet (1-2 ml) was poured into small cups and allowed to cool to room temperature. Test solution (100 ul) was placed onto the diet surface and allowed to evaporate the solvent. Each concentration of chemical had 2 sets of 10 cups each. One late 2nd instar larva was placed in each cup and covered with lid having perforations for aeration. Cups were placed in an incubator for 7 days at 25±1° C. and 70±5% RH. After seven days, the weight of each larva was taken and any mortality was recorded. Then, the surviving larvae were transferred to fresh diet cups holding sufficient diet (5-6 ml) without chemicals and incubated at 25±1° C. and 70±5% RH until pupation. Weights of larvae were taken 14 days after transferring to fresh diet (21 days after start of treatment). Finally, the number of days until pupation was recorded.
Anion transporters caused larval death and a reduction in weight gain within 7 days exposure. The effect persisted for 2 weeks time on untreated diet, but total time to pupation was relatively unaffected.

[3] = 6.25 ppm, 7 days after feeding, 10 larvae treated
[4] = 6.25 ppm, 21 days after feeding
[5] = 6.25 ppm, 21 days after feeding, 10 larvae treated
[6] = 12.5 ppm, 7 days after feeding, 10 larvae treated
[7] = 12.5 ppm, 21 days after feeding
[8] = 12.5 ppm, 21 days after feeding, 10 larvae treated
[9] = 25 ppm, 7 days after feeding, 10 larvae treated
[10] = 25 ppm, 21 days after feeding, 10 larvae treated
[11] = 50 ppm, 7 days after feeding, 10 larvae treated

In the case of `CC1(C2CCCC2)Cc2cc(OCC(=O)O)c(Cl)c(Cl)c2C1=O` (single isomer, unassigned; (+)) [IAA-94, (+)(2-cyclopentyl-6,7-dichloro-2-methyl-1-oxo-5-indanyloxy) acetic acid], the “Eggs Hatched %” value ([1]; 2 ppm, 24 hr) is reported as 10%, the “Eggs Hatched % C* (% hatch, normalized to control)” value ([1]; 2 ppm, 24 hr) is reported as 100% and the “Eggs Hatched No.” value ([1]; 2 ppm, 24 hr) is reported as 70. The “Eggs Hatched %” value ([1]; 2 ppm, 72 hr) was 15%, the “Eggs Hatched % C* (% hatch, normalized to control)” value ([1]; 2 ppm, 72 hr) was 94% and the “Eggs Hatched No.” value ([1]; 2 ppm, 72 hr) was 97. For the same compound, the “Eggs Hatched %” value ([1]; 2 ppm, 120 hr) was 19%, the “Eggs Hatched % C* (% hatch, normalized to control)” value ([1]; 2 ppm, 120 hr) was 86% and the “Eggs Hatched No.” value ([1]; 2 ppm, 120 hr) was 130. The “Eggs Hatched %” value ([1]; 2 ppm, 168 hr) was 24%, the “Eggs Hatched % C* (% hatch, normalized to control)” value ([1]; 2 ppm, 168 hr) was 86% and the “Eggs Hatched No.” value ([1]; 2 ppm, 168 hr) was 161. For the same compound, the “Eggs Hatched %” value ([1]; 5 ppm, 24 hr) was 10%, the “Eggs Hatched % C* (% hatch, normalized to control)” value ([1]; 5 ppm, 24 hr) was 100% and the “Eggs Hatched No.” value ([1]; 5 ppm, 24 hr) was 66. The “Eggs Hatched %” value ([1]; 5 ppm, 72 hr) was 13%, the “Eggs Hatched % C* (% hatch, normalized to control)” value ([1]; 5 ppm, 72 hr) was 81% and the “Eggs Hatched No.” value ([1]; 5 ppm, 72 hr) was 96. The “Eggs Hatched %” value ([1]; 5 ppm, 120 hr) was 19%, the “Eggs Hatched % C* (% hatch, normalized to control)” value ([1]; 5 ppm, 120 hr) was 86% and the “Eggs Hatched No.” value ([1]; 5 ppm, 120 hr) was 128. The “Eggs Hatched %” value ([1]; 5 ppm, 168 hr) was 22%, the “Eggs Hatched % C* (% hatch, normalized to control)” value ([1]; 5 ppm, 168 hr) was 79% and the “Eggs Hatched No.” value ([1]; 5 ppm, 168 hr) was 161. The “Eggs Hatched %” value ([1]; 10 ppm, 24 hr) was 9%, the “Eggs Hatched % C* (% hatch, normalized to control)” value ([1]; 10 ppm, 24 hr) was 90% and the “Eggs Hatched No.” value ([1]; 10 ppm, 24 hr) was 64. For the same compound, the “Eggs Hatched %” value ([1]; 10 ppm, 72 hr) was 13%, the “Eggs Hatched % C* (% hatch, normalized to control)” value ([1]; 10 ppm, 72 hr) was 81% and the “Eggs Hatched No.” value ([1]; 10 ppm, 72 hr) was 88. For the same compound, the “Eggs Hatched %” value ([1]; 10 ppm, 120 hr) was 18%, the “Eggs Hatched % C* (% hatch, normalized to control)” value ([1]; 10 ppm, 120 hr) was 82% and the “Eggs Hatched No.” value ([1]; 10 ppm, 120 hr) was 112. For the same compound, the “Eggs Hatched %” value ([1]; 10 ppm, 168 hr) was 20%, the “Eggs Hatched % C* (% hatch, normalized to control)” value ([1]; 10 ppm, 168 hr) was 71% and the “Eggs Hatched No.” value ([1]; 10 ppm, 168 hr) was 134. For the same compound, the “Eggs Hatched %” value ([1]; 20 ppm, 24 hr) was 8%, the “Eggs Hatched % C* (% hatch, normalized to control)” value ([1]; 20 ppm, 24 hr) was 80% and the “Eggs Hatched No.” value ([1]; 20 ppm, 24 hr) was 60. The “Eggs Hatched %” value ([1]; 20 ppm, 72 hr) was 12%, the “Eggs Hatched % C* (% hatch, normalized to control)” value ([1]; 20 ppm, 72 hr) was 75% and the “Eggs Hatched No.” value ([1]; 20 ppm, 72 hr) was 82. For the same compound, the “Eggs Hatched %” value ([1]; 20 ppm, 120 hr) was 15%, the “Eggs Hatched % C* (% hatch, normalized to control)” value ([1]; 20 ppm, 120 hr) was 68% and the “Eggs Hatched No.” value ([1]; 20 ppm, 120 hr) was 96. For the same compound, the “Eggs Hatched %” value ([1]; 20 ppm, 168 hr) was 17%, the “Eggs Hatched % C* (% hatch, normalized to control)” value ([1]; 20 ppm, 168 hr) was 61% and the “Eggs Hatched No.” value ([1]; 20 ppm, 168 hr) was 112. For the same compound, the “Eggs Hatched %” value ([1]; 40 ppm, 24 hr) was 8%, the “Eggs Hatched % C* (% hatch, normalized to control)” value ([1]; 40 ppm, 24 hr) was 80% and the “Eggs Hatched No.” value ([1]; 40 ppm, 24 hr) was 55. For the same compound, the “Eggs Hatched %” value ([1]; 40 ppm, 72 hr) was 11%, the “Eggs Hatched % C* (% hatch, normalized to control)” value ([1]; 40 ppm, 72 hr) was 69% and the “Eggs Hatched No.” value ([1]; 40 ppm, 72 hr) was 69. The “Eggs Hatched %” value ([1]; 40 ppm, 120 hr) was 13%, the “Eggs Hatched % C* (% hatch, normalized to control)” value ([1]; 40 ppm, 120 hr) was 59% and the “Eggs Hatched No.” value ([1]; 40 ppm, 120 hr) was 82. The “Eggs Hatched %” value ([1]; 40 ppm, 168 hr) was 14%, the “Eggs Hatched % C* (% hatch, normalized to control)” value ([1]; 40 ppm, 168 hr) was 50% and the “Eggs Hatched No.” value ([1]; 40 ppm, 168 hr) was 92. The “Mean wt of survived larvae” value ([2]; 6.25 ppm, 7 days after feeding) was 45.52 mg, the “Mean wt of survived larvae, mg” value ([2]; 6.25 ppm, 7 days after feeding) was 44.64 (10) mg and the No. dead ([2]; 6.25 ppm, 7 days after feeding, 10 larvae) was 0. The “# surviving” value [2, 3] was 10, the No. dead [2, 3] was 0 and the “Mean wt of survived larvae” value [2, 4] was 138.56 mg. The “Mean wt of survived larvae, mg” value [2, 4] was 150.90 (10) mg, the No. dead ([2]; 6.25 ppm, 21 days after feeding, 10 larvae) was 0 and the “# surviving” value [2, 5] was 10. For the same compound, the No. dead [2, 5] was 0, the “Mean wt of survived larvae” value ([2]; 12.5 ppm, 7 days after feeding) was 33.62 mg and the “Mean wt of survived larvae, mg” value ([2]; 12.5 ppm, 7 days after feeding) was 34.40 (10) mg. For the same compound, the No. dead ([2]; 12.5 ppm, 7 days after feeding, 10 larvae) was 0, the “# surviving” value [2, 6] was 10 and the No. dead [2, 6] was 0. For the same compound, the “Mean wt of survived larvae” value [2, 7] was 108.84 mg, the “Mean wt of survived larvae, mg” value [2, 7] was 115.14 (10) mg and the No. dead ([2]; 12.5 ppm, 21 days after feeding, 10 larvae) was 0. The “# surviving” value [2, 8] was 10, the No. dead [2, 8] was 0 and the “Mean wt of survived larvae” value ([2]; 25 ppm, 7 days after feeding) was 25.97 mg. For the same compound, the “Mean wt of survived larvae, mg” value ([2]; 25 ppm, 7 days after feeding) was 23.96 (10) mg, the No. dead ([2]; 25 ppm, 7 days after feeding, 10 larvae) was 0 and the “# surviving” value [2, 9] was 8. The No. dead [2, 9] was 2, the “Mean wt of survived larvae” value ([2]; 25 ppm, 21 days after feeding) was 4.85 mg and the “Mean wt of survived larvae, mg” value ([2]; 25 ppm, 21 days after feeding) was 65.60 (8) mg. For the same compound, the No. dead ([2]; 25 ppm, 21 days after feeding, 10 larvae) was 2, the “# surviving” value [2, 10] was 8 and the No. dead [2, 10] was 2. The “Mean wt of survived larvae” value ([2]; 50 ppm, 7 days after feeding) was 11.90 mg, the “Mean wt of survived larvae, mg” value ([2]; 50 ppm, 7 days after feeding) was 12.93 (6) mg and the No. dead ([2]; 50 ppm, 7 days after feeding, 10 larvae) was 4. The “# surviving” value [2, 11] was 2, the No. dead [2, 11] was 8 and the “Mean wt of survived larvae” value ([2]; 50 ppm, 21 days after feeding) was 0 mg. The “Mean wt of survived larvae, mg” value ([2]; 50 ppm, 21 days after feeding) was 24.0 (2) mg, the No. dead ([2]; 50 ppm, 21 days after feeding, 10 larvae) was 8 and the No. dead ([2]; 50 ppm, 21 days after feeding, 10 larvae treated) was 10. The mortality at 6.25 ppm ([2]; Ostrinia nubilalis, 168 h, 6.25 ppm, 7 days after feeding) was 0%, the mortality at 12.5 ppm ([2]; Ostrinia nubilalis, 168 h, 12.5 ppm, 7 days after feeding) was 0% and the mortality at 6.25 ppm ([2]; Ostrinia nubilalis, 504 h, 6.25 ppm, 21 days after feeding) was 0%. It also gave a mortality at 12.5 ppm ([2]; Ostrinia nubilalis, 504 h, 12.5 ppm, 21 days after feeding) of 0%, a mortality at 25 ppm ([2]; Ostrinia nubilalis, 504 h, 25 ppm, 21 days after feeding) of 20% and a mortality at 50 ppm ([2]; Ostrinia nubilalis, 504 h, 50 ppm, 21 days after feeding) of 80%.

Source: patent US20080103205A1, “Pesticidal compositions and methods of use” (priority 2006, published 2008)
